Results taken from patent US20020172694A1, “Extended release formulation of diltiazem hydrochloride” (DOV Pharmaceutical, Inc., priority 2001, published 2002).
Where a name gives a salt, the structure may show the parent alone.

Assays:
[1] = single oral dose, healthy individual, FIG. 6
Procedure: One hundred twenty milligrams (120 mg) of diltiazem hydrochloride powder were combined with a 360 mg dose of DILTIAZEM OD ER. […] Consequently, this mixture contained approximately 25 percent by weight of a quick release preparation of diltiazem, and approximately 75 percent by weight of a slow release preparation of diltiazem, based upon the percentage of diltiazem in the final mixture.
The resulting mixture was then encapsulated in a larger gelatin capsule and orally administered to a healthy individual, taking no medications which would affect diltiazem plasma levels or interfere with their proper determination. Controls containing either 120 mg diltiazem hydrochloride or 360 mg Diltiazem ER were administered separately. An interval of approximately 5-7 days elapsed between the administration of each agent tested in this example.
An intravenous blood sample was withdrawn into pre-cooled, commercially available [sequence] (TM) containing EDTA (ethylenediamine tetraacetic acid) as an anticoagulant Just before administration of the test agent; this sample represented the zero time sample. The blood sample was centrifuged for 15 minutes under conditions known to those skilled in the art. […] The plasma levels of diltiazem were determined by HPLC (High Performance Liquid Chromatography) analysis according to the method of Eradiri (36).

angina pectoris = conditions: cited from earlier work
[2] = in vivo; cited from earlier work

SMILES	time after administration by which most of the preparation is gone [1]	time to peak plasma levels of diltiazem after administration [1]	incidence of side effects versus other calcium channel blockers (angina pectoris; comparative studies)	efficacy versus beta-adrenergic receptor blockers, nitrates and verapamil (angina pectoris; in vivo)	efficacy versus nifedipine (angina pectoris; in vivo)	plasma half-life [2]
COc1ccc([C@@H]2Sc3ccccc3N(CCN(C)C)C(=O)[C@@H]2OC(C)=O)cc1 [diltiazem hydrochloride]	5 to 6 h	1 to 2 h				
COc1ccc([C@@H]2Sc3ccccc3N(CCN(C)C)C(=O)[C@@H]2OC(C)=O)cc1 [diltiazem, 25-cis-3-(Acetoxyl)-5-[2-(dimethylamino)ethyl]-2-3-dihydro-2-(4-methoxyphenyl)-1,5-benzothiazepin-4(5H)-one]			lower incidence of side effects	equivalent	more effective	2 to 6 h
